Experimental data: patent publication US9586970B2, “Imidazole derivatives” (Hoffmann-La Roche Inc., priority 2014, dated 2017)

target: human PDE10A (Homo sapiens (Human), UniProt Q9Y233); experiment: human PDE10A full length assay ([3H]-cGMP SPA); assay type: biochemical; details: full length PDE10A enzyme, 50 nM cGMP + 50 nM [3H]-cGMP, 20 minutes at room temperature; read-out: PDE10A inhibition IC50
Method: The human PDE10A full length assay was performed in 96-well micro titer plates. The reaction mixture of 50 μl contained 20 mM HEPES pH=7.5/10 mM MgCl2/0.05 mg/ml BSA (Sigma cat. #A-7906), 50 nM cGMP (Sigma, cat. #G6129) and 50 nM [3H]-cGMP (GE Healthcare, cat. #TRK392 S.A. 13.2 Ci/mmol), 3.75 ng/well PDE10A enzyme (Enzo Life Science, Lausen, Switzerland cat #SE-534) with or without a specific test compound. A range of concentrations of the potential inhibitor was used to generate data for calculating the concentration of inhibitor resulting in 50% of the effect (e.g. IC50, the concentration of the competitor inhibiting PDE10A activity by 50%). Non-specific activity was tested without the enzyme. The reaction was initiated by the addition of the substrate solution (cGMP and [3H]-cGMP) and allowed to progress for 20 minutes at room temperature. The reaction was terminated by adding 25 μl of YSi-SPA scintillation beads (GE Healthcare, cat. # RPNQ0150) in 18 mM zinc sulphate solution (stop reagent). After 1 h under shaking, the plate was centrifuged one minute at 170 g to allow beads to settle. Afterwards, radioactive counts were measured on a Perkin Elmer TopCount Scintillation plate reader.

Sequence of human PDE10A (Q9Y233 other isoform, or with tags, fused parts or gaps): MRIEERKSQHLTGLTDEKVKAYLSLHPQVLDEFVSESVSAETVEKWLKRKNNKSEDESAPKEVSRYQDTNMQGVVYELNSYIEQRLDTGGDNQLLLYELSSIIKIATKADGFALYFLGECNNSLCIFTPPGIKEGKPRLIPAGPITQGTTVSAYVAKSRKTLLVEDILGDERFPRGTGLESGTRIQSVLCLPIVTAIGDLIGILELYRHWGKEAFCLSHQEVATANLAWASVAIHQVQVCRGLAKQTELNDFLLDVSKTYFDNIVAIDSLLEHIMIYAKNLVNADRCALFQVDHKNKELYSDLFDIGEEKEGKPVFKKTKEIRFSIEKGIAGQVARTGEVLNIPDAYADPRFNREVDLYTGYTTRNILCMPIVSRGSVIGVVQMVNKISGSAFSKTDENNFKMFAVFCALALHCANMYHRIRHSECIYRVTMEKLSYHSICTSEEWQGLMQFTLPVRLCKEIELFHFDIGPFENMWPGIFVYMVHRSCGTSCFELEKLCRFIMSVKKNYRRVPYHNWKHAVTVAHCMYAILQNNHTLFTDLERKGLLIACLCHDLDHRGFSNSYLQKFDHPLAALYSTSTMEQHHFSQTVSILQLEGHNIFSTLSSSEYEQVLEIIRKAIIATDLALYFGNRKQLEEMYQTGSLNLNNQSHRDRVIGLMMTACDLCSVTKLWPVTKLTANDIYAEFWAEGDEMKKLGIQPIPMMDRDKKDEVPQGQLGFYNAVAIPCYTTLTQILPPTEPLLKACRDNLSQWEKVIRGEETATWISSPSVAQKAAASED

Compound	IC50 [nM]
Cc1ncc(C)n2nc(CCc3nc(N4CCCC4=O)cn3CC(F)(F)F)nc12 [Example 13, 1-[2-(2-{4,7-Dimethyl-[1,2,4]triazolo[1,5-a]pyrazin-2-yl}ethyl)-1-(2,2,2-trifluoroethyl)-1H-imidazol-4-yl]pyrrolidin-2-one]	36.7
Cc1ncc(C)n2nc(CCc3nc(-n4ccccc4=O)cn3C)nc12 [Example 5, 1-(2-(2-(5,8-dimethyl-[1,2,4]triazolo[1,5-a]pyrazin-2-yl)ethyl)-1-methyl-1H-imidazol-4-yl)pyridin-2(1H)-one]	195
Cc1cnc(C)n2nc(CCc3nc(N4CCCC4=O)cn3C)nc12 [Example 1, 1-(2-(2-(5,8-dimethyl-[1,2,4]triazolo[1,5-c]pyrimidin-2-yl)ethyl)-1-methyl-1H-imidazol-4-yl)pyrrolidin-2-one]	39
Cc1ncc(C)n2nc(CCc3nc(N4CCCC4=O)cn3CC3CC3)nc12 [Example 12, 1-[1-(Cyclopropylmethyl)-2-(2-{4,7-dimethyl-[1,2,4]triazolo[1,5-a]pyrazin-2-yl}ethyl)-1H-imidazol-4-yl]pyrrolidin-2-one]	16.9
Cc1ncc(C)n2nc(/C=C/c3nc(N4CCCC4=O)cn3-c3ccccc3)nc12 [Example 3]	9.5
Cc1cnc(C)n2nc(CCc3nc(N4CCCC4=O)cn3CC3CC3)nc12 [Example 16, 1-[1-(Cyclopropylmethyl)-2-(2-{5,8-dimethyl-[1,2,4]triazolo[1,5-c]pyrimidin-2-yl}ethyl)-1H-imidazol-4-yl]pyrrolidin-2-one]	14.8
Cc1ncc(C)n2nc(CCc3nc(-n4ccccc4=O)cn3CC3CC3)nc12 [Example 4, 1-(1-(Cyclopropylmethyl)-2-(2-(5,8-dimethyl-[1,2,4]triazolo[1,5-a]pyrazin-2-yl)ethyl)-1H-imidazol-4-yl)pyridin-2(1H)-one]	150
Cc1ncc(C)n2nc(CCc3nc(N4CCCC4=O)cn3C3CC3)nc12 [Example 7, 1-{1-Cyclopropyl-2-[2-(5,8-dimethyl-[1,2,4]triazolo[1,5-a]pyrazin-2-yl)-ethyl]-1H-imidazol-4-yl}-pyrrolidin-2-one]	27
Cc1nc(C#Cc2nc(N3CCCC3=O)cn2C)nc2c(C)cccc12 [Example 9, 1-(2-((4,8-dimethylquinazolin-2-yl)ethynyl)-1-methyl-1H-imidazol-4-yl)pyrrolidin-2-one]	4.6
Cc1ncc(C)n2nc(CCc3nc(N4CCCC4=O)cn3-c3ccccc3)nc12 [Example 2, 1-(2-(2-(5,8-dimethyl-[1,2,4]triazolo[1,5-a]pyrazin-2-yl)ethyl)-1-phenyl-1H-imidazol-4-yl)pyrrolidin-2-one]	1.3
Cc1ncc(C)n2nc(/C=C/c3nc(N4CCCC4=O)cn3C)nc12 [Example 10, 1-{2-[(E)-2-{4,7-dimethyl-[1,2,4]triazolo[1,5-a]pyrazin-2-yl}ethenyl]-1-methyl-1H-imidazol-4-yl}pyrrolidin-2-one]	54.6
Cc1ncc(C)n2nc(C#Cc3nc(N4CCCC4=O)cn3C)nc12 [Example 15, 1-[2-(2-{4,7-Dimethyl-[1,2,4]triazolo[1,5-a]pyrazin-2-yl}ethynyl)-1-methyl-1H-imidazol-4-yl]pyrrolidin-2-one]	29
Cc1ncc(C)n2nc(CCc3nc(N4CCCC4=O)cn3CC(F)F)nc12 [Example 14, 1-[1-(2,2-difluoroethyl)-2-(2-{4,7-dimethyl-[1,2,4]triazolo[1,5-a]pyrazin-2-yl}ethyl)-1H-imidazol-4-yl]pyrrolidin-2-one]	46.9
Cc1ncc(C)n2nc(CCc3nc(N4CCCC4=O)cn3C)nc12 [Example 11, 1-[2-(2-{4,7-Dimethyl-[1,2,4]triazolo[1,5-a]pyrazin-2-yl}ethyl)-1-methyl-1H-imidazol-4-yl]pyrrolidin-2-one]	18
Cc1ncc(C)n2nc(/C=C/c3nc(N4CCN(C)C4=O)cn3C)nc12 [Example 8, 2′-[(E)-2-(5,8-Dimethyl-[1,2,4]triazolo[1,5-a]pyrazin-2-yl)-vinyl]-3, 1′-dimethyl-4,5-dihydro-3H, 1′H-[1,4′]biimidazolyl-2-one]	162
1-{2-[(E)-2-{4,7-Dimethyl-[1,2,4]triazolo[1,5-a]pyrazin-2-yl}ethenyl]-1-phenyl-1H-imidazol-4-yl}pyrrolidin-2-one [Example 20]	19.4
Cc1ncc(C)n2nc(/C=C/c3nc(N4CCCC4=O)cn3C3CC3)nc12 [Example 6, 1-[1-cyclopropyl-2-[(E)-2-(5,8-dimethyl-[1,2,4]triazolo[1,5-a]pyrazin-2-yl)ethenyl]imidazol-4-yl]pyrrolidin-2-one]	81

Results, then the compound that gave them:

IC50 [nM]	Compound
26.8	Cc1cnc(C)n2nc(CCc3nc(N4CCCC4=O)cn3CC(F)F)nc12 [Example 19, 1-[1-(2,2-difluoroethyl)-2-(2-{5,8-dimethyl-[1,2,4]triazolo[1,5-c]pyrimidin-2-yl}ethyl)-1H-imidazol-4-yl]pyrrolidin-2-one]
2.9	CNC(=O)c1cc(CCc2nc(N3CCCC3=O)cn2-c2ccccc2)nn2c(C)c(C(F)(F)F)nc12 [Example 27, N,3-Dimethyl-6-{2-[4-(2-oxopyrrolidin-1-yl)-1-phenyl-1H-imidazol-2-yl]ethyl}-2-(trifluoromethyl)imidazo[1,2-b]pyridazine-8-carb oxamide]
176	Cc1cc(C)n2nc(CCc3nc(N4CCCC4=O)cn3C)nc2n1 [Example 21, 1-[2-(2-{5,7-dimethyl-[1,2,4]triazolo[1,5-a]pyrimidin-2-yl}ethyl)-1-methyl-1H-imidazol-4-yl]pyrrolidin-2-one]
117	Cc1c(C(F)(F)F)nc2ccc(CCc3nc(N4CCCC4=O)cn3C)nn12 [Example 22, 1-(1-Methyl-2-{2-[3-methyl-2-(trifluoromethyl)imidazo[1,2-b]pyridazin-6-yl]ethyl}-1H-imidazol-4yl) pyrrolidin-2-one]
168	Cc1cnc(C)n2nc(CCc3nc(N4CCCC4=O)cn3CC(F)(F)F)nc12 [Example 18, 1-[2-(2-{5,8-dimethyl-[1,2,4]triazolo[1,5-c]pyrimidin-2-yl}ethyl)-1-(2,2,2-trifluoroethyl)-1H-imidazol-4-yl]pyrrolidin-2-one]
3.2	Cc1cnc(C)n2nc(CCc3nc(N4CCCC4=O)cn3-c3ccccc3)nc12 [Example 17, 1-[2-[2-(5,8-dimethyl-[1,2,4]triazolo[1,5-c]pyrimidin-2-yl)ethyl]-1-phenyl-imidazol-4-yl]pyrrolidin-2-one]
75.5	Cc1c(C(F)(F)F)nc2ccc(C#Cc3nc(N4CCCC4=O)cn3C)nn12 [Example 24, 1-(1-Methyl-2-{2-[3-methyl-2-(trifluoromethyl)imidazo[1,2-b]pyridazin-6-yl]ethynyl}-1H-imidazol-4-yl)pyrrolidin-2-one]
3.1	Cc1c(C(F)(F)F)nc2ccc(CCc3nc(N4CCCC4=O)cn3-c3ccccc3)nn12 [Example 23, 1-(2-{2-[3-Methyl-2-(trifluoromethyl)imidazo[1,2-b]pyridazin-6-yl]ethyl}-1-phenyl-1H-imidazol-4yl)pyrrolidin-2-one]
21.9	Cc1c(C(F)(F)F)nc2ccc(C#Cc3nc(N4CCCC4=O)cn3-c3ccccc3)nn12 [Example 25, 1-(2-{2-[3-methyl-2-(trifluoromethyl)imidazo[1,2-b]pyridazin-6-yl]ethynyl}-1-phenyl-1H-imidazol-4-yl) pyrrolidin-2-one]
112	CNC(=O)c1cc(CCc2nc(N3CCCC3=O)cn2C)nn2c(C)c(C(F)(F)F)nc12 [Example 26]
